{"source": "patent US20040063681A1", "about": "“Methods for using gold (III) complexes as anti-tumor and anti-HIV agents” (priority 2002, published 2004)", "key": {"calf thymus DNA [1]": {"system": "calf thymus DNA", "assay": "Viscosity evaluation of DNA", "conditions": "(η/ηo)^1/3 vs binding ratio r", "text": "Viscosity evaluation. The binding interaction of the gold(III) porphyrins can be further investigated by examining the change of DNA viscosity upon binding of the metalloporphyrin. If the metalloporphyrin binds to DNA by intercalation, this would cause chain elongation, unwinding and stiffening of the DNA helix as a consequence of untwisting of the base pairs and helical backbone needed to accommodate the intercalator.\nFor comparison, the viscosity profiles for ethidium bromide (intercalator) and Hoechst 33342 (minor groove binder) are also shown is FIG. 10."}, "[2]": {"assay": "Electrochemical measurements (cyclic voltammetry)", "type": "physicochemical", "procedure": "Electrochemical measurements. Electrochemical measurements were performed at room temperature after purging with nitrogen using 0.1 M tetrabutylammonium hexafluorophosphate (TBAP)/acetonitrile as supporting electrolyte. The working electrode was a glassy carbon (Atomergic Chemetal V25, geometric area of 0.35 cm^2) electrode and the counter electrode was platinum gauze. A nonaqueous Ag/AgNO3 (0.1 M in acetonitrile) reference electrode was contained in a separate compartment connected to the test solution via fine sintered glass disks. The ferrocenium/ferrocene couple was used as the internal standard. The redox properties of the gold(III) porphyrin complexes in non-aqueous medium (CH2Cl2 with 0.1 M nBu4NPF6) have been studied by cyclic voltammetry with glassy carbon and platinum as the working and counter electrodes, respectively. […] The effect of para-substitution on the electrochemical potentials has been examined by Hammett correlation analysis."}, "[3]": {"system": "human cancer cell lines (HL-60, HepG2, HeLa, KB-3-1, KB-V1, SUNE1, CNE1)", "type": "cell-based", "conditions": "MTT, all studied cell lines; read-out: IC50 values over the panel of cancer cell lines", "text": "Human promyelocytic leukemia (HL-60), human hepatocellular carcinoma (HepG2), Human cervix epitheloid carcinoma cells (HeLa) and human oral epidermoid carcinoma cells (KB-3-1), were obtained from American Type Culture Collection (ATCC) (Rockville, Md.). The multi-drug-resistant variant KB-V1 cell line was obtained by stepwise selections for vinblastine resistance as described by Shen et al., J. Biol. Chem. 261:7762-7770 (1986)], and was generously provided by Dr Michael Gottesman (NIH, Bethesda, Md.). Human nasopharyngeal carcinoma cells (SUNE1 and its cisplatin resistance variant, CNE1) were derived from poorly differentiated NPC in Chinese patients as described by Gu et al., Chin. J. Cancer 2:270-272 (1983), and were generously provided by Dr S. W. Tsao (The University of Hong Kong, Hong Kong, PRC). Cell culture flasks and 96 well microtitre plates were from Nalge Nunc hit. Culture medium, other medium constituents and phosphate buffered saline (PBS) were obtained from Gibco BRL (Rockville, Md.). […]\nThe anti-cancer activities of the gold(III) porphyrin complexes were evaluated toward some established human cancer cell lines: promyelocytic leukemia (HL-60), hepatocellular carcinoma (HepG2), cervix epitheloid carcinoma (HeLa), epidermoid carcinoma (KB-3-1) and its multi-drug resistant variant (KB-V1), nasopharyngeal carcinoma (SUNE1) and its cisplatin-resistant variant (CNE1). […]"}, "[4]": {"system": "Human Hepatocellular Carcinoma (HepG2)", "assay": "MTT cytotoxicity, HepG2", "type": "cell-based", "conditions": "growth inhibition", "text": "Human promyelocytic leukemia (HL-60), human hepatocellular carcinoma (HepG2), Human cervix epitheloid carcinoma cells (HeLa) and human oral epidermoid carcinoma cells (KB-3-1), were obtained from American Type Culture Collection (ATCC) (Rockville, Md.). The multi-drug-resistant variant KB-V1 cell line was obtained by stepwise selections for vinblastine resistance as described by Shen et al., J. Biol. Chem. 261:7762-7770 (1986)], and was generously provided by Dr Michael Gottesman (NIH, Bethesda, Md.). Human nasopharyngeal carcinoma cells (SUNE1 and its cisplatin resistance variant, CNE1) were derived from poorly differentiated NPC in Chinese patients as described by Gu et al., Chin. J. Cancer 2:270-272 (1983), and were generously provided by Dr S. W. Tsao (The University of Hong Kong, Hong Kong, PRC). Cell culture flasks and 96 well microtitre plates were from Nalge Nunc hit. Culture medium, other medium constituents and phosphate buffered saline (PBS) were obtained from Gibco BRL (Rockville, Md.). Cell Proliferation Kit I (MTT) was purchased from Roche (Mannheim, Germany).\nThe anti-cancer activities of the gold(III) porphyrin complexes were evaluated toward some established human cancer cell lines: promyelocytic leukemia (HL-60), hepatocellular carcinoma (HepG2), cervix epitheloid carcinoma (HeLa), epidermoid carcinoma (KB-3-1) and its multi-drug resistant variant (KB-V1), nasopharyngeal carcinoma (SUNE1) and its cisplatin-resistant variant (CNE1). The experiments were carried out by following the MTT procedure (see Mosmann et al., J. Immunol. Methods 65:55-63 (1983). The IC50 values of the gold(III) porphyrin complexes together with that of cisplatin, and KAuCl4 are provided in Table 4a; and the IC50 values of the gold(III) Schiff-base and bis(pyridyl)carboxamide complexes are shown in Table 4b. The cytotoxicity profiles of some selected gold(III) porphyrin complexes toward SUNE1 and its cisplatin-resistant variant CNE1 are also shown in FIG. 7."}, "calf thymus DNA [5]": {"system": "calf thymus DNA", "assay": "UV-vis absorption titration with calf thymus DNA", "type": "binding", "procedure": "The calf thymus DNA was purchased from Sigma-Aldrich Chemical Co. and was purified by phenol-chloroform extraction. The DNA was dissolved in buffer (5 mM Tris, 5 mM NaCl, pH 7.2). The concentration (per base pair) of calf thymus DNA was determined spectrophotometrically on the basic of ε260, 13,200 M^−1cm^−1bp.\nAbsorption Titration. The binding interaction of the gold(III) porphyrins to duplex DNA has been studied by UV-vis spectroscopy.\nwhere [ctDNA] is the concentration of DNA, Δεap═|εA−εB| in which εA=Aobs/[complex], and Δε=|εB−εF|. εB and εF correspond to the extinction coefficient of DNA-bound gold(III) porphyrin and the free gold(III) porphyrins, respectively.\nThe effect of temperature on the intrinsic binding constants was investigated. Using the van't Hoff equation (2): […]"}, "[6]": {"assay": "UV-vis stability study in buffer solution with and without glutathione", "type": "physicochemical", "conditions": "room temperature", "procedure": "UV-vis experiments. For UV-vis analysis, the absorption spectra of 2.5 μM (7 nmoles) of all studied complexes in (1:19) MeCN/Tris buffer solution was monitored over 72 h. […] The gold(III) solution was monitored over 48 h at room temperature and less than 10% decrease in the Soret band intensity was observed without any significant spectral shift in both the Soret and Q-bands.\nYet, no significant spectral shift and formation of new absorption bands were observed.\nThis finding confirms the excellent solution stability of 1j and 1k in physiologically related medium.\nThe precipitates are soluble in common organic solvent such as THF, CHCl3 and DMSO but insoluble in aqueous solution."}, "HeLa cells": {"system": "HeLa cells", "assay": "Confocal microscopic experiment (cell morphology, AO/EB staining)", "type": "cell-based, human", "conditions": "0.5 μM, 15 h incubation", "text": "Confocal Microscopic Experiment. By examining cell morphology using scanning confocal microscopy, the type of cell death can be recognized. The early phase of apoptosis is characterized by the formation of apoptotic bodies while the integrity of the cell membrane is maintained without cell lysis. On the contrary, necrosis is characterized by cell lysis with the internal cellular components such as DNA being exposed. Using suitable staining agents (ethidium bromide (EB) for DNA and acridine orange (AO) for cell membrane) normal, necrotic and apoptotic cells can be distinguished by laser confocal microscopy. See Chan et al., Inorg. Chem. 41:3161-3171 (2002).\nThe picture of the cells is depicted in FIG. 12. […] Importantly, no cellular DNA was exposed due to necrosis."}, "[7]": {"conditions": "cyclic voltammetry, 0.1 M nBu4NPF6, glassy carbon, vs Cp2Fe^+/0"}}, "data": [{"smiles": "C1=Cc2nc1c(-c1ccccc1)c1ccc([n-]1)c(-c1ccccc1)c1nc(c(-c3ccccc3)c3ccc([n-]3)c2-c2ccccc2)C=C1.[Au+3].[Cl-]", "note": "[Complex 1a]", "values": [{"measurement": "change in viscosity of the DNA", "setting": "calf thymus DNA [1]", "result": "no appreciable change in viscosity of the DNA"}, {"measurement": "Couple I (first reduction couple)", "setting": "[2]; [7]", "result": "−1.00", "unit": "V"}, {"measurement": "Couple II (second reduction couple)", "setting": "[2]; [7]", "result": "−1.48", "unit": "V"}, {"measurement": "ΔE1o (E^0Y − E^0H), couple I", "setting": "[2]; relative to Y=H (Complex 1a)", "result": 0, "unit": "V"}, {"measurement": "ΔE2^0 (E^0Y − E^0H), couple II", "setting": "[2]; relative to Y=H (Complex 1a)", "result": 0, "unit": "V"}, {"measurement": "IC50", "setting": "[3]", "result": "100 to 800", "unit": "nM"}, {"measurement": "IC50", "setting": "[4]", "result": 340, "unit": "nM"}, {"measurement": "hypochromicity", "setting": "calf thymus DNA [5]; Tris buffer, 292.8 K", "result": 53.4, "unit": "%"}, {"measurement": "hypochromicity", "setting": "calf thymus DNA [5]; Tris buffer, 298.0 K", "result": 50.3, "unit": "%"}, {"measurement": "intrinsic binding constant (Kb)", "setting": "calf thymus DNA [5]; Tris buffer, 298.0 K", "result": "2.14 × 10^6 dm^3mol^−1"}, {"measurement": "hypochromicity", "setting": "calf thymus DNA [5]; Tris buffer, 302.3 K", "result": 49.5, "unit": "%"}, {"measurement": "intrinsic binding constant (Kb)", "setting": "calf thymus DNA [5]; Tris buffer, 302.3 K", "result": "1.98 × 10^6 dm^3mol^−1"}, {"measurement": "hypochromicity", "setting": "calf thymus DNA [5]; Tris buffer, 307.2 K", "result": 47.1, "unit": "%"}, {"measurement": "intrinsic binding constant (Kb)", "setting": "calf thymus DNA [5]; Tris buffer, 307.2 K", "result": "1.55 × 10^6 dm^3mol^−1"}, {"measurement": "hypochromicity", "setting": "calf thymus DNA [5]; Tris buffer, 311.6 K", "result": 46.3, "unit": "%"}, {"measurement": "intrinsic binding constant (Kb)", "setting": "calf thymus DNA [5]; Tris buffer, 311.6 K", "result": "1.35 × 10^6 dm^3mol^−1"}, {"measurement": "hypochromicity", "setting": "calf thymus DNA [5]; Tris buffer, 316.5 K", "result": 43.4, "unit": "%"}, {"measurement": "intrinsic binding constant (Kb)", "setting": "calf thymus DNA [5]; Tris buffer, 316.5 K", "result": "0.94 × 10^6 dm^3mol^−1"}, {"measurement": "hypochromicity", "setting": "calf thymus DNA [5]; Tris buffer, 321.9 K", "result": 42.5, "unit": "%"}, {"measurement": "intrinsic binding constant (Kb)", "setting": "calf thymus DNA [5]; Tris buffer, 321.9 K", "result": "0.82 × 10^6 dm^3mol^−1"}, {"measurement": "ΔG° (298 K)", "setting": "calf thymus DNA [5]; binding to calf thymus DNA, van't Hoff analysis, 298 K", "result": "−8.7 ± 0.4"}, {"measurement": "hypochromicity of the Soret band", "setting": "calf thymus DNA [5]; calf thymus DNA (0-5 μM), Tris buffer", "result": 44, "unit": "%"}, {"measurement": "hypochromicity of the Q-band at 520 nm", "setting": "calf thymus DNA [5]; calf thymus DNA (0-5 μM), Tris buffer, 2% DMSO", "result": 40, "unit": "%"}, {"measurement": "decrease in the Soret band intensity", "setting": "[6]; 2.5 μM in Tris buffer/MeCN (19:1), 48 h", "result": "less than 10%"}, {"measurement": "decrease of the Soret band intensity", "setting": "[6]; glutathione 2 mM in Tris buffer/MeCN=19:1, 48 h", "result": "about 27%"}, {"measurement": "cell morphology (type of cell death)", "setting": "HeLa cells", "result": "living cells and apoptotic cells were observed"}]}]}
